{"source": "patent US11261180B2", "about": "“Cyclohexyl acid isoxazole azoles as LPA antagonists” (Bristol-Myers Squibb Company, priority 2017, dated 2022)", "key": {"[1]": {"target": "T1, LPA1 (Homo sapiens, UniProt Q92633)", "T1 sequence (Q92633 whole entry)": "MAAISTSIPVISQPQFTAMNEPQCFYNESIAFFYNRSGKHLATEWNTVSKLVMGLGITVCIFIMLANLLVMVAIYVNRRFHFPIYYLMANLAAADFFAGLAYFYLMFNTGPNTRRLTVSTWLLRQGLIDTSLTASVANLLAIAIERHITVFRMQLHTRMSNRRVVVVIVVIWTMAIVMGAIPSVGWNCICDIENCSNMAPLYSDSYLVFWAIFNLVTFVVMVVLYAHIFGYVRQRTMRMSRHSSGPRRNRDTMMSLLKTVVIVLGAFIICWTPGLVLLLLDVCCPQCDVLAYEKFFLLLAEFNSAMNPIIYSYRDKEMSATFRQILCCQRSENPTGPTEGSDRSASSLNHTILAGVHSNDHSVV", "parameters": "host or cells: IPF patients (in vivo)", "details": "26-week clinical trial, IPF patients; cited from earlier work"}, "[2]": {"target": "T1, LPA1", "assay": "LPA1 functional antagonist assay (calcium flux in CHO cells overexpressing human LPA1)", "assay_type": "cell-based", "parameters": "expressed in transfected cells; host or cells: Chinese hamster ovary (CHO) cells", "details": "CHO cells overexpressing human LPA1, calcium flux induced by 10 nM LPA; read-out: hLPA1 IC50", "procedure": "The effectiveness of compounds of the present invention as LPA1 inhibitors can be determined in an LPA1 functional antagonist assay as follows:\nChinese hamster ovary cells overexpressing human LPA1 were plated overnight (15,000 cells/well) in poly-D-lysine coated 384-well microplates (Greiner bio-one, Cat #781946) in DMEM/F12 medium (Gibco, Cat #11039). Following overnight culture, cells were loaded with calcium indicator dye (AAT Bioquest Inc, Cat #34601) for 30 minutes at 37° C. The cells were then equilibrated to room temperature for 30 minutes before the assay. Test compounds solubilized in DMSO were transferred to 384 well non-binding surface plates (Corning, Cat #3575) using the Labcyte Echo acoustic dispense and diluted with assay buffer [[…] with calcium/magnesium (Gibco Cat #14025-092), 20 mM HEPES (Gibco Cat #15630-080) and 0.1% fatty acid free BSA (Sigma Cat #A9205)] to a final concentration of 0.5% DMSO. Diluted compounds were added to the cells by FDSS6000 (Hamamatsu) at final concentrations ranging from 0.08 nM to 5 μM. and were then incubated for 20 min at room temperature at which time LPA (Avanti Polar Lipids Cat #857130C) was added at final concentrations of 10 nM to stimulate the cells. The compound IC50 value was defined as the concentration of test compound which inhibited 50% of the calcium flux induced by LPA alone. IC50 values were determined by fitting data to a 4-parameter logistic equation (GraphPad Prism, San Diego Calif.)."}, "[3]": {"system": "nerve-injured mice", "details": "pretreatment; cited from earlier work"}, "[4]": {"system": "human foetal lung fibroblasts", "details": "cited from earlier work"}, "[5]": {"system": "UUO mice", "details": "compared with LPA1 (-/-) mice; cited from earlier work"}, "[6]": {"system": "CTGF", "details": "MCT cells, co-treatment with LPA; cited from earlier work"}, "[7]": {"system": "pancreatic cancer cell lines", "details": "cited from earlier work"}, "[8]": {"system": "highly peritoneal metastatic pancreatic cancer cell line", "details": "cited from earlier work"}}}
{"smiles": "Cc1noc(-c2ccc(-c3ccc(C4(C(=O)O)CC4)cc3)cc2)c1NC(=O)O[C@H](C)c1ccccc1", "note": "[BMS-986020]", "values": [{"measurement": "rate of FVC (forced vital capacity) decline", "setting": "[1]", "value": "significantly reduce the rate of FVC (forced vital capacity) decline"}]}
{"smiles": "CCCc1nnc(NCc2c(C)noc2-c2ccc(O[C@H]3CCC[C@H](C(=O)O)C3)cn2)s1", "note": "[Example 1, (1S,3S)-3-((6-(3-methyl-4-(((5-propyl-1,3,4-thiadiazol-2-yl)amino)methyl)isoxazol-5-yl)pyridin-3-yl)oxy)cyclohexane-1-carboxylic Acid]", "values": [{"measurement": "IC50", "setting": "[2]", "value": 2470, "unit": "nM"}]}
{"smiles": "Cc1noc(-c2ccc(O[C@H]3CCC[C@H](C(=O)O)C3)cn2)c1CNc1ncc(-c2ccccc2)s1", "note": "[Example 3, (1S,3S)-3-((6-(3-methyl-4-(((5-phenyl-thiazol-2-yl)amino)methyl)isoxazol-5-yl)pyridin-3-yl)oxy) cyclohexane-1-carboxylic acid]", "values": [{"measurement": "IC50", "setting": "[2]", "value": 712, "unit": "nM"}]}
{"smiles": "Cc1noc(-c2ccc(O[C@H]3CCC[C@H](C(=O)O)C3)cn2)c1CNc1nc(-c2ccccc2)ns1", "note": "[Example 4, (1S,3S)-3-((6-(3-methyl-4-(((3-phenyl-1,2,4-thiadiazol-5-yl)amino)methyl)isoxazol-5-yl)pyridin-3-yl)oxy) cyclohexane-1-carboxylic acid]", "values": [{"measurement": "IC50", "setting": "[2]", "value": 153, "unit": "nM"}]}
{"smiles": "Cc1nc(NCc2c(C)noc2-c2ccc(O[C@H]3CCC[C@H](C(=O)O)C3)cn2)sc1-c1ccccc1", "note": "[Example 5]", "values": [{"measurement": "IC50", "setting": "[2]", "value": 41, "unit": "nM"}]}
{"smiles": "Cc1noc(-c2ccc(O[C@H]3CCC[C@H](C(=O)O)C3)cn2)c1CNc1ncc(C(F)(F)F)s1", "note": "[Example 6, (1S,3S)-3-((6-(3-methyl-4-(((5-(trifluoromethyl)thiazol-2-yl)amino)methyl)isoxazol-5-yl)pyridin-3-yl)oxy)cyclohexane-1-carboxylic acid]", "values": [{"measurement": "IC50", "setting": "[2]", "value": 486, "unit": "nM"}]}
{"smiles": "Cc1nc(-c2onc(C)c2CNc2ncn(-c3ccccc3)n2)ccc1O[C@H]1CCC[C@H](C(=O)O)C1", "note": "[Example 7]", "values": [{"measurement": "IC50", "setting": "[2]", "value": 29, "unit": "nM"}]}
{"smiles": "C[C@@H](N)[C@H]1CC[C@H](C(=O)Nc2ccncc2)CC1", "note": "[Example Y-27632]", "values": [{"measurement": "allodynia and hyperalgesia", "setting": "[3]", "value": "completely abolished"}]}
{"smiles": "Cc1noc(-c2ccc(CSCCC(=O)O)cc2)c1NC(=O)OC(C)c1ccccc1Cl", "note": "(centres unmarked) [Ki16425]", "values": [{"measurement": "chemotaxis of human foetal lung fibroblasts induced by BAL from IPF patients", "setting": "[4]", "value": "blocked"}, {"measurement": "increased fibroblast chemotactic activity in bronchoalveolar lavage samples of IPF subjects", "setting": "[4]", "value": "inhibited"}, {"measurement": "renal fibrosis profile in UUO mice", "setting": "[5]", "value": "closely resembled the profile of LPA1 (−/−) mice"}, {"measurement": "LPA induction of CTGF expression", "setting": "[6]", "value": "almost completely suppressed"}, {"measurement": "in vitro migration in response to LPA and peritoneal fluid (ascites) from pancreatic cancer patients", "setting": "[7]", "value": "effectively blocked"}, {"measurement": "LPA-induced and ascites-induced invasion activity", "setting": "[8]", "value": "blocked"}]}
